# Several values for one entry are separate records, joined by “and”; a condition that tells them apart may be missing. Equal entries are not always repeated. Entries after “also recorded” stand apart in the source; their conditions may differ.
# Tests used:
# [1] = test system: E. faecalis membranes (NDH-2); experiment: E. faecalis membranes: NADH-Q0 reductase activity and ROS production; type: biochemical
# E. coli membranes = experiment: Restoration of NADH oxidation and ROS production, E. coli membranes; type: biochemical
# M. smegmatis mc2 155 = experiment: M. smegmatis growth inhibition (colony counts on 7H9 agar); type: cell-based; conditions: for effect of antioxidants (α-tocopherol, 4-hydroxy-TEMPO, N-acetylcysteine) on growth inhibition: 0.5 μg/ml CFZ or 10 μg/ml INH
# rat mitochondria = experiment: Restoration of NADH oxidation, rat mitochondria; type: biochemical; conditions: KCN-inhibited rat mitochondria
# [2] = biological target: recombinant M. tuberculosis NDH-2 (Mycobacterium tuberculosis, UniProt P95160); type: biochemical
# Sequence of recombinant M. tuberculosis NDH-2 (P95160 whole entry, looked up): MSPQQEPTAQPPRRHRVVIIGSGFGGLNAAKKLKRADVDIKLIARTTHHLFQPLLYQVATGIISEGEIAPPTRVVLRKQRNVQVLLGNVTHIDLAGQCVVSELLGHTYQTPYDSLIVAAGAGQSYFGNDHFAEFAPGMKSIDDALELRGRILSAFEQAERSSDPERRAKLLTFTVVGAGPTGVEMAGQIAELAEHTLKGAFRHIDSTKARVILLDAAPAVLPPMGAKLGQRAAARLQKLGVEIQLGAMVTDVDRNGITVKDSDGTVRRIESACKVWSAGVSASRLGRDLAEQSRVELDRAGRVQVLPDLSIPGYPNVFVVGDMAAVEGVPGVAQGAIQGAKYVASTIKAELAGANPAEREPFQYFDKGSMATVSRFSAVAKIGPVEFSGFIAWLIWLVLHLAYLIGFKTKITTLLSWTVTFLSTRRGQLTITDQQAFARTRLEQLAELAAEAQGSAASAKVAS
# Bacillus thuringiensis = experiment: Antimicrobial activity (MIC); type: cell-based
# [3] = cited from earlier work
# [4] = Solubility and cationic/uncharged species in detergents (Triton X-100, Na-lauroyl sarcosine)
# [5] = test system: submitochondrial membranes from S. cerevisiae; experiment: Restoration of NADH oxidation and ROS production, S. cerevisiae submitochondrial membranes; type: biochemical
# S. aureus membranes = experiment: Restoration of NADH oxidation and ROS production, S. aureus membranes; type: biochemical, Staphylococcus aureus
# Enterococcus faecium = experiment: Antimicrobial activity (MIC); type: cell-based
# [6] = test system: Staphylococcus aureus MRSA; experiment: Antimicrobial activity (MIC); type: cell-based
# [7] = Solubility in buffered water as a function of pH (centrifugation, spectroscopy); type: physicochemical
# Enterococcus faecalis = experiment: Antimicrobial activity (MIC); type: cell-based
# M. smegmatis membranes [8] = experiment: ROS production by M. smegmatis log-phase membranes (Amplex Red/HRP/superoxide dismutase); type: biochemical
# P. aeruginosa membranes = experiment: Restoration of NADH oxidation and ROS production, P. aeruginosa membranes; type: biochemical, Pseudomonas aeruginosa
# [9] = test system: P. denitrificans membranes; experiment: Restoration of NADH oxidation and ROS production, P. denitrificans membranes; type: biochemical, Paracoccus denitrificans
# M. smegmatis membranes [10] = type: biochemical
# M. smegmatis membranes [11] = experiment: Reduction and reoxidation (redox cycling) with M. smegmatis membranes and NADH; type: biochemical
smiles,measurement,setting,value
"CN(C)CCCN1c2ccccc2Sc2ccc(Cl)cc21 [CPZ, chlorpromazin]",effect on NADH-Q0 reductase activity (NADH oxidation),"[1]; 400 μM CPZ, 0.2 mM NADH, 2 mM Q0",completely ceased
same,inhibition of KS6-mediated ROS production,[1]; E. faecalis membranes,complete inhibition
"CC(C)N=c1cc2n(-c3ccc(Cl)cc3)c3ccccc3nc-2cc1Nc1ccc(Cl)cc1 [CFZ, 3-(4-chloroanilino)-10-(4-chlorophenyl)-2,10-dihydro-2-(isopropylimino)-phenazine]",ROS production,E. coli membranes; E. coli membranes,did not exhibit significant CFZ-mediated NADH oxidation or ROS production
same,restoration of NADH oxidation,E. coli membranes; KCN-inhibited E. coli membranes,"did not exhibit significant CFZ-mediated NADH oxidation or ROS production; also recorded: no restoration of NADH oxidation; also recorded: little, if any, restoration of NADH oxidation"
same,"effect of antioxidants (α-tocopherol, 4-hydroxy-TEMPO, N-acetylcysteine) on growth inhibition",M. smegmatis mc2 155,nullified the growth inhibitory activity; also recorded: prevented
same,colony formation of M. smegmatis on agar,"M. smegmatis mc2 155; 0.5 μg/ml CFZ or more, ≧4 days, control 670±100 colonies",undetectable; also recorded: Virtually no colonies
same,restoration of NADH oxidation,rat mitochondria,"little, if any, restoration of NADH oxidation"
same,ROS generation with purified NDH-2 and NADH,[2],generation of ROS
same,reduction by purified NDH-2,[2]; pH 6.5,purified NDH-2 reduces CFZ
same,MIC,Bacillus thuringiensis,5 µM
same,"redox potential Em, cationic species",[3]; Kovacic et al. 1989,−180 mV
same,"redox potential Em, uncharged species",[3]; Kovacic et al. 1989,−950 mV
same,pKa (commonly quoted),[3]; unclear origin,8.5
same,pKa,[4]; buffered Triton X-100 detergent solution,6.8
same,solubility,"[4]; pH 3.5, aqueous with cosolvent or surfactant or cyclodextrin",≥ 50 µM
same,solubility,"[4]; pH 5, aqueous with cosolvent or surfactant or cyclodextrin",≥ 50 µM
same,restoration of NADH oxidation,[5]; KCN-inhibited S. cerevisiae submitochondrial membranes,significant restoration of NADH oxidation
same,ROS production,[5]; S. cerevisiae submitochondrial particles,able to oxidize NADH and generate ROS
same,restoration of NADH oxidation,S. aureus membranes; KCN-inhibited S. aureus membranes,significant restoration of NADH oxidation
same,ROS production,S. aureus membranes; S. aureus membranes,able to oxidize NADH and generate ROS
same,inhibitory effect of high levels on mediated NADH oxidation,S. aureus membranes; S. aureus membranes,inhibitory
same,MIC,Enterococcus faecium,10 µM
same,MIC,[6],2.5 µM
same,fraction of CFZ remaining in solution,"[7]; 50 mM MOPS/Na+ pH 6.5, 2.0 mM MgCl2, 1.18 μg/ml, 40 min",~70%
same,soluble compound in water,[7]; above pH 7.5,not detectable
same,solubility,"[7]; buffered water (0.1 M buffer), 23 °C, pH 7, aqueous buffer, kinetic from dmso stock, neutral pH, 50 μM added, overnight, centrifuged",< 2 µM
same,solubility in water,[7]; pH 3.5,virtually all the drug remained in the supernatant
same,soluble compound in water,[7]; pH 6.5,barely detectable
same,fraction of CFZ remaining soluble,"[7]; reaction buffer pH 6.5, 1.2 μg/ml, 40-min incubation",About two-thirds
same,MIC,Enterococcus faecalis,10 µM
same,increase of rate of ROS production over background,"M. smegmatis membranes [8]; log-phase membranes, NADH, 0.5 μg CFZ",11.5 fold
same,ROS (resorufin) production rate relative to rate of NADH consumption / electron transport chain,"M. smegmatis membranes [8]; maximum, 0.1-0.2 μg CFZ/μg membrane protein, no KCN",~18%
same,CFZ reduction and ROS production with succinate instead of NADH,M. smegmatis membranes [8]; succinate as electron donor,neither CFZ reduction nor ROS production was observed
same,restoration of NADH oxidation,P. aeruginosa membranes; KCN-inhibited P. aeruginosa membranes,"did not exhibit significant CFZ-mediated NADH oxidation or ROS production; also recorded: little, if any, restoration of NADH oxidation"
same,ROS production,P. aeruginosa membranes; P. aeruginosa membranes,did not exhibit significant CFZ-mediated NADH oxidation or ROS production
same,restoration of NADH oxidation,[9]; KCN-inhibited P. denitrificans membranes,"did not exhibit significant CFZ-mediated NADH oxidation or ROS production; also recorded: little, if any, restoration of NADH oxidation"
same,ROS production,[9]; P. denitrificans membranes,did not exhibit significant CFZ-mediated NADH oxidation or ROS production
same,CFZ-mediated NADH oxidase rate relative to rate in absence of KCN,M. smegmatis membranes [10],25-70%
same,fraction of NADH oxidase activity restored (maximum),M. smegmatis membranes [10],0.25 and 0.40-0.70
same,restoration of NADH oxidation,M. smegmatis membranes [10],restored a significant level of NADH oxidation
same,observed first order rate constant of reoxidation of reduced CFZ,M. smegmatis membranes [11]; 0.5% SDS (final) added,1.40 ± 0.01 min⁻¹
same,reduction on NADH addition with membranes,"M. smegmatis membranes [11]; M. smegmatis membranes, NADH",marked loss of CFZ absorbance
same,observed first (pseudo) order rate constant of reoxidation of reduced CFZ,"M. smegmatis membranes [11]; after agitation, no SDS",1.25 ± 0.01 min⁻¹
same,second order rate constant for reoxidation of reduced CFZ by O2,M. smegmatis membranes [11]; assuming 250 μM O2,~100 M⁻¹ s⁻¹ and 83 M⁻¹ s⁻¹
"CN1CCN(CCCN2c3ccccc3Sc3ccc(C(F)(F)F)cc32)CC1 [TPZ, trifluoperazine]",effect on ROS formation by purified NDH-2 with CFZ,[2],inhibited
same,effect on CFZ-mediated ROS production,M. smegmatis membranes [8]; TPZ 0.2 mM,sensitive to TPZ
same,inhibition of NADH oxidase activity,M. smegmatis membranes [10],inhibited CFZ-mediated NADH oxidase activity
"NNC(=O)c1ccncc1 [INH, isoniazid]","effect of antioxidants (α-tocopherol, 4-hydroxy-TEMPO, N-acetylcysteine) on growth inhibition",M. smegmatis mc2 155,not altered; also recorded: not sensitive to antioxidants
same,M. smegmatis growth,M. smegmatis mc2 155; 10 μg/ml,completely inhibited

# From patent US9540336B2, “Therapeutic agents” (priority 2011, dated 2017)
